Laboratory results published in patent publication US12252524B2, “GIP/GLP1 co-agonist compounds” (Eli Lilly and Company, priority 2018, dated 2025).
Numbered stars: 1 amine (or outer) side, 2 acyl side, 3 side chain; on linkers, the order of the positions; unused ones are H or OH. Square brackets hold non-standard residues; d marks the D form. Side chains are listed from the residue outwards. Peptide text beside a SMILES is read from it. * marks the point of attachment. C18 diacid = O=C(O)CCCCCCCCCCCCCCCCC(=O)*; αMePhe(2-F) = C[C@](N)(Cc1ccccc1F)C(=O)O; γGlu = O=C(O)[C@H](CCC(=O)[*:2])N[*:1]; αMeY = C[C@](N)(Cc1ccc(O)cc1)C(=O)O; αMeF = C[C@](N)(Cc1ccccc1)C(=O)O; 4Pal = N[C@@H](Cc1ccncc1)C(=O)O; αMeL = CC(C)C[C@](C)(N)C(=O)O; Orn = NCCC[C@H](N)C(=O)O; Dab = NCC[C@H](N)C(=O)O; AEEA = NCCOCCOCC(=O)O; Aib = CC(C)(N)C(=O)O

How the values were obtained:
[1] = molecular target: T1, gastric inhibitory peptide receptor (GIPR) (Homo sapiens, UniProt P48546); assay: cAMP pharmacological functional assay in presence of casein, hGIPR; format: cell-based; settings: HEK293 cells expressing hGIPR, 0.1% Casein, geometric mean; read-out: hGIPR cAMP Rel EC50 nM (SEM, n)
T1 sequence (P48546 22-466): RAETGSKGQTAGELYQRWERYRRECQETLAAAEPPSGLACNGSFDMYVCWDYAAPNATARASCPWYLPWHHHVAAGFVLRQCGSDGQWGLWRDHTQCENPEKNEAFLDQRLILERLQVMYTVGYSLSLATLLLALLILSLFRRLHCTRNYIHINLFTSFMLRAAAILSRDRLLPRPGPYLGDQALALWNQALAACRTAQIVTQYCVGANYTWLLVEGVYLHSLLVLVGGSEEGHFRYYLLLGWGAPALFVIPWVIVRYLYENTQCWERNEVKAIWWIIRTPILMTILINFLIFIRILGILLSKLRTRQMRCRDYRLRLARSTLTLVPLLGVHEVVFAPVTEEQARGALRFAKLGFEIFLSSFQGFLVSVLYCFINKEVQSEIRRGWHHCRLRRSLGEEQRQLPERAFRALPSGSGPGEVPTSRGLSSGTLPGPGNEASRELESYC

human GIP receptor = molecular target: T2, human GIP receptor (Homo sapiens, UniProt P48546); assay: [125I]-GIP binding (SPA), human GIP receptor; settings: read-out: hGIPR Ki, nM (SEM, n)
T2 construct: expressed in transfected cells; crude membranes
T2 sequence (P48546 22-466): T1 sequence (P48546 22-466)

[2] = molecular target: human GLP-1 receptor (GLP-1R) (Homo sapiens, UniProt P43220); assay: cAMP pharmacological functional assay in presence of casein, hGLP-1R; format: cell-based; settings: HEK293 cells expressing hGLP-1R, 0.1% Casein, geometric mean; read-out: hGLP1R cAMP Rel EC50 nM (SEM, n)
human GLP-1 receptor (GLP-1R), sequence (P43220 24-463): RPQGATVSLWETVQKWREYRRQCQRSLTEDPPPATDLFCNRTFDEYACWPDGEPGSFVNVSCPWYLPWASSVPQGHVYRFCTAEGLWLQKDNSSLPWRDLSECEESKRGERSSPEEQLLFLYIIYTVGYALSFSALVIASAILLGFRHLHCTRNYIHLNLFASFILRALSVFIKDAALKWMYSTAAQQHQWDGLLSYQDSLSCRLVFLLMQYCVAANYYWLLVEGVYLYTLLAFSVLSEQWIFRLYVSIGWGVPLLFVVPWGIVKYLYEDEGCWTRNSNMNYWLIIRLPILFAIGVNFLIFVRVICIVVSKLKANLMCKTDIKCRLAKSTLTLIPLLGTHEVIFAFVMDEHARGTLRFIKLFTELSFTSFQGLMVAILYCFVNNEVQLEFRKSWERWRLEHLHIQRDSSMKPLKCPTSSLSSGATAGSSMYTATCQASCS

human Gcg receptor = molecular target: T3, human Gcg receptor (Homo sapiens, UniProt P47871); assay: [125I]-Glucagon binding (SPA), human Gcg receptor; settings: read-out: hGLcgR Ki, nM (SEM, n)
T3 construct: expressed in transfected cells; crude membranes
T3 sequence (P47871 26-477): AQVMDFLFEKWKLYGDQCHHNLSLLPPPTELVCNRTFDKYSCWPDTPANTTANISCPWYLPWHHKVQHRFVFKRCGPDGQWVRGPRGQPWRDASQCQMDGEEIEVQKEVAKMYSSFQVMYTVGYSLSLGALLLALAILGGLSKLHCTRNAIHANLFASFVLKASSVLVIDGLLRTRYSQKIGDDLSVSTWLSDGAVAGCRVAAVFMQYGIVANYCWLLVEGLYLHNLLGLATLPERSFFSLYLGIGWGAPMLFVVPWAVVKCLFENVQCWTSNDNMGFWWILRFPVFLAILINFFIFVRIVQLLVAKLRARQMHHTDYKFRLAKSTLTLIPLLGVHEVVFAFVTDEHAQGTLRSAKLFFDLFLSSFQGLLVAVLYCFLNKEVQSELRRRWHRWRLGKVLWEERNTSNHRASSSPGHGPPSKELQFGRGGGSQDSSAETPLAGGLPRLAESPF
In short: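 Cell pellets were lysed in hypotonic Tris buffer, pH 7.5, homogenized, and spun at low then high speed to give crude membranes. Ki was derived from the fitted IC50.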

human GLP-1R = human GLP-1R (Homo sapiens, UniProt P43220); assay: [125I]-GLP-1 binding (SPA), human GLP-1 receptor; set-up: expressed in transfected cells; crude membranes; settings: read-out: hGLP1R Ki, (nM) (SEM, n)
human GLP-1R, sequence (P43220 24-463): as the sequence (P43220 24-463) above
In short: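 Assay buffer: HEPES 25 mM, pH 7.4, CaCl2 2.5 mM, MgCl2 1 mM, with EDTA-free protease inhibitors. Receptor came from crude cell membranes prepared by homogenization and centrifugation at 4° C. IC50s came from four-parameter fits (maximum, minimum, IC50, Hill slope) and were expressed as Ki geometric means with SEM.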

| SMILES | EC50 [1] | Ki (human GIP receptor) | EC50 [2] | Ki (human Gcg receptor) | Ki (human GLP-1R) |
| --- | --- | --- | --- | --- | --- |
| CC[C@H](C)[C@H](NC(=O)[C@H](CC(C)C)NC(=O)[C@H](Cc1ccc(O)cc1)NC(=O)[C@@H](CCC(=O)O)NC(=O)[C@@H](NC(=O)[C@H](Cc1ccccc1)NC(=O)[C@H](CCC(=O)O)NC(=O)C(C)(C)NC(=O)[C@H](CCC(N)=O)NC(=O)[C@H](C)NC(=O)[C@H](CCCCNC(=O)COCCOCCNC(=O)COCCOCCNC(=O)CC[C@H](NC(=O)CCCCCCCCCCCCCCCCC(=O)O)C(=O)O)NC(=O)[C@H](CCCN)NC(=O)[C@H](CC(=O)O)NC(=O)[C@H](CC(C)C)NC(=O)[C@](C)(CC(C)C)NC(=O)[C@@H](NC(=O)[C@H](CO)NC(=O)[C@H](Cc1ccncc1)NC(=O)[C@H](CC(=O)O)NC(=O)[C@H](CO)NC(=O)[C@@H](NC(=O)[C@](C)(Cc1ccccc1F)NC(=O)[C@@H](NC(=O)CNC(=O)[C@H](CCC(=O)O)NC(=O)C(C)(C)NC(=O)[C@@H](N)Cc1ccc(O)cc1)[C@@H](C)O)[C@@H](C)O)[C@@H](C)CC)[C@@H](C)CC)C(=O)N[C@@H](CCC(=O)O)C(=O)NCC(=O)NCC(=O)N1CCC[C@H]1C(=O)N[C@@H](CO)C(=O)N[C@@H](CO)C(=O)NCC(=O)N[C@@H](C)C(=O)N1CCC[C@H]1C(=O)N1CCC[C@H]1C(=O)N1CCC[C@H]1C(=O)N[C@@H](CO)C(N)=O [Example 232] (H-Y[Aib]EGT[αMePhe(2-F)]TSD[4Pal]SI[αMeL]LD[Orn]K([AEEA-AEEA-γGlu-C18 diacid])AQ[Aib]EFI[dE]YLIEGGPSSGAPPPS-NH2) | 0.027 nM | 0.0544 nM | 0.0724 nM | > 1150 nM | 5.62 nM |
| CC[C@H](C)[C@H](NC(=O)[C@H](CC(C)C)NC(=O)[C@H](Cc1ccc(O)cc1)NC(=O)[C@@H](CCC(=O)O)NC(=O)[C@@H](NC(=O)[C@H](Cc1ccccc1)NC(=O)[C@H](CCC(=O)O)NC(=O)C(C)(C)NC(=O)[C@H](CCC(N)=O)NC(=O)[C@H](C)NC(=O)[C@H](CCCCNC(=O)COCCOCCNC(=O)COCCOCCNC(=O)CC[C@H](NC(=O)CCCCCCCCCCCCCCCCC(=O)O)C(=O)O)NC(=O)[C@H](CCN)NC(=O)[C@H](CC(=O)O)NC(=O)[C@H](CC(C)C)NC(=O)[C@](C)(CC(C)C)NC(=O)[C@@H](NC(=O)[C@H](CO)NC(=O)[C@H](Cc1ccncc1)NC(=O)[C@H](CC(=O)O)NC(=O)[C@H](CO)NC(=O)[C@@H](NC(=O)[C@](C)(Cc1ccccc1F)NC(=O)[C@@H](NC(=O)CNC(=O)[C@H](CCC(=O)O)NC(=O)C(C)(C)NC(=O)[C@@H](N)Cc1ccc(O)cc1)[C@@H](C)O)[C@@H](C)O)[C@@H](C)CC)[C@@H](C)CC)C(=O)N[C@@H](CCC(=O)O)C(=O)NCC(=O)NCC(=O)N1CCC[C@H]1C(=O)N[C@@H](CO)C(=O)N[C@@H](CO)C(=O)NCC(=O)N[C@@H](C)C(=O)N1CCC[C@H]1C(=O)N1CCC[C@H]1C(=O)N1CCC[C@H]1C(=O)N[C@@H](CO)C(N)=O [Example 233] (H-Y[Aib]EGT[αMePhe(2-F)]TSD[4Pal]SI[αMeL]LD[Dab]K([AEEA-AEEA-γGlu-C18 diacid])AQ[Aib]EFI[dE]YLIEGGPSSGAPPPS-NH2) | 0.0288 nM | 0.0445 nM | 0.0549 nM | > 1150 nM | 5.99 nM |
| CC[C@H](C)[C@H](NC(=O)[C@H](CC(C)C)NC(=O)[C@H](Cc1ccc(O)cc1)NC(=O)[C@@H](CCC(=O)O)NC(=O)[C@@H](NC(=O)[C@H](Cc1ccccc1)NC(=O)[C@H](CCC(=O)O)NC(=O)C(C)(C)NC(=O)[C@H](CCC(N)=O)NC(=O)[C@H](C)NC(=O)[C@H](CCCCNC(=O)COCCOCCNC(=O)COCCOCCNC(=O)CC[C@H](NC(=O)CCCCCCCCCCCCCCCCC(=O)O)C(=O)O)NC(=O)[C@H](CCN)NC(=O)[C@H](CC(=O)O)NC(=O)[C@H](CC(C)C)NC(=O)[C@H](CC(C)C)NC(=O)[C@@H](NC(=O)[C@H](CO)NC(=O)[C@H](Cc1ccncc1)NC(=O)[C@H](CC(=O)O)NC(=O)[C@H](CO)NC(=O)[C@@H](NC(=O)[C@](C)(Cc1ccccc1F)NC(=O)[C@@H](NC(=O)CNC(=O)[C@H](CCC(=O)O)NC(=O)C(C)(C)NC(=O)[C@@H](N)Cc1ccc(O)cc1)[C@@H](C)O)[C@@H](C)O)[C@@H](C)CC)[C@@H](C)CC)C(=O)N[C@@H](CCC(=O)O)C(=O)NCC(=O)NCC(=O)N1CCC[C@H]1C(=O)N[C@@H](CO)C(=O)N[C@@H](CO)C(=O)NCC(=O)N[C@@H](C)C(=O)N1CCC[C@H]1C(=O)N1CCC[C@H]1C(=O)N1CCC[C@H]1C(=O)N[C@@H](CO)C(N)=O [Example 234] (H-Y[Aib]EGT[αMePhe(2-F)]TSD[4Pal]SILLD[Dab]K([AEEA-AEEA-γGlu-C18 diacid])AQ[Aib]EFI[dE]YLIEGGPSSGAPPPS-NH2) | 0.0372 nM | 0.0563 nM | 0.0926 nM | > 1100 nM | 10.9 nM |
| CC[C@H](C)[C@H](NC(=O)[C@H](CC(C)C)NC(=O)[C@H](Cc1ccc(O)cc1)NC(=O)[C@@H](CCC(=O)O)NC(=O)[C@@H](NC(=O)[C@H](Cc1ccccc1)NC(=O)[C@H](CCC(=O)O)NC(=O)C(C)(C)NC(=O)[C@H](CCC(N)=O)NC(=O)[C@H](C)NC(=O)[C@H](CCCCNC(=O)COCCOCCNC(=O)COCCOCCNC(=O)CC[C@H](NC(=O)CCCCCCCCCCCCCCCCC(=O)O)C(=O)O)NC(=O)[C@H](CCN)NC(=O)[C@H](CC(=O)O)NC(=O)[C@H](CC(C)C)NC(=O)[C@](C)(CC(C)C)NC(=O)[C@@H](NC(=O)[C@H](CO)NC(=O)[C@H](Cc1ccncc1)NC(=O)[C@H](CC(=O)O)NC(=O)[C@H](CO)NC(=O)[C@@H](NC(=O)[C@](C)(Cc1ccccc1)NC(=O)[C@@H](NC(=O)CNC(=O)[C@H](CCC(=O)O)NC(=O)C(C)(C)NC(=O)[C@@H](N)Cc1ccc(O)cc1)[C@@H](C)O)[C@@H](C)O)[C@@H](C)CC)[C@@H](C)CC)C(=O)N[C@@H](CCC(=O)O)C(=O)NCC(=O)NCC(=O)N1CCC[C@H]1C(=O)N[C@@H](CO)C(=O)N[C@@H](CO)C(=O)NCC(=O)N[C@@H](C)C(=O)N1CCC[C@H]1C(=O)N1CCC[C@H]1C(=O)N1CCC[C@H]1C(=O)N[C@@H](CO)C(N)=O [Example 235] (H-Y[Aib]EGT[αMeF]TSD[4Pal]SI[αMeL]LD[Dab]K([AEEA-AEEA-γGlu-C18 diacid])AQ[Aib]EFI[dE]YLIEGGPSSGAPPPS-NH2) | 0.0372 nM | 0.0581 nM | 0.136 nM | > 1200 nM | 7.65 nM |
| CC[C@H](C)[C@H](NC(=O)[C@H](CC(C)C)NC(=O)[C@](C)(Cc1ccc(O)cc1)NC(=O)[C@@H](CCC(=O)O)NC(=O)[C@@H](NC(=O)[C@H](Cc1ccccc1)NC(=O)[C@H](CCC(=O)O)NC(=O)C(C)(C)NC(=O)[C@H](CCC(N)=O)NC(=O)[C@H](C)NC(=O)[C@H](CCCCNC(=O)COCCOCCNC(=O)COCCOCCNC(=O)CC[C@H](NC(=O)CCCCCCCCCCCCCCCCC(=O)O)C(=O)O)NC(=O)[C@H](CCCN)NC(=O)[C@H](CC(=O)O)NC(=O)[C@H](CC(C)C)NC(=O)[C@](C)(CC(C)C)NC(=O)[C@@H](NC(=O)[C@H](CO)NC(=O)[C@H](Cc1ccc(O)cc1)NC(=O)[C@H](CC(=O)O)NC(=O)[C@H](CO)NC(=O)[C@@H](NC(=O)[C@](C)(Cc1ccccc1F)NC(=O)[C@@H](NC(=O)CNC(=O)[C@H](CCC(=O)O)NC(=O)C(C)(C)NC(=O)[C@@H](N)Cc1ccc(O)cc1)[C@@H](C)O)[C@@H](C)O)[C@@H](C)CC)[C@@H](C)CC)C(=O)N[C@@H](CCC(=O)O)C(=O)NCC(=O)NCC(=O)N1CCC[C@H]1C(=O)N[C@@H](CO)C(=O)N[C@@H](CO)C(=O)NCC(=O)N[C@@H](C)C(=O)N1CCC[C@H]1C(=O)N1CCC[C@H]1C(=O)N1CCC[C@H]1C(=O)N[C@@H](CO)C(N)=O [Example 236] (H-Y[Aib]EGT[αMePhe(2-F)]TSDYSI[αMeL]LD[Orn]K([AEEA-AEEA-γGlu-C18 diacid])AQ[Aib]EFI[dE][αMeY]LIEGGPSSGAPPPS-NH2) | 0.0249 nM | 0.0425 nM | 0.0231 nM | 200 nM | 1.05 nM |
